# Test results reported in ChEMBL document CHEMBL1201862, “PubChem BioAssay data set” (2004).
# Calls of active or inactive are those of the source. Cut-off read from the data, not from the text of the source: actives have a measured EC50 and inactives only a lower limit.
# Molecular target: T1, Protein RecA (Mycobacterium tuberculosis, UniProt P9WHJ3)
# T1 sequence (P9WHJ3 whole entry): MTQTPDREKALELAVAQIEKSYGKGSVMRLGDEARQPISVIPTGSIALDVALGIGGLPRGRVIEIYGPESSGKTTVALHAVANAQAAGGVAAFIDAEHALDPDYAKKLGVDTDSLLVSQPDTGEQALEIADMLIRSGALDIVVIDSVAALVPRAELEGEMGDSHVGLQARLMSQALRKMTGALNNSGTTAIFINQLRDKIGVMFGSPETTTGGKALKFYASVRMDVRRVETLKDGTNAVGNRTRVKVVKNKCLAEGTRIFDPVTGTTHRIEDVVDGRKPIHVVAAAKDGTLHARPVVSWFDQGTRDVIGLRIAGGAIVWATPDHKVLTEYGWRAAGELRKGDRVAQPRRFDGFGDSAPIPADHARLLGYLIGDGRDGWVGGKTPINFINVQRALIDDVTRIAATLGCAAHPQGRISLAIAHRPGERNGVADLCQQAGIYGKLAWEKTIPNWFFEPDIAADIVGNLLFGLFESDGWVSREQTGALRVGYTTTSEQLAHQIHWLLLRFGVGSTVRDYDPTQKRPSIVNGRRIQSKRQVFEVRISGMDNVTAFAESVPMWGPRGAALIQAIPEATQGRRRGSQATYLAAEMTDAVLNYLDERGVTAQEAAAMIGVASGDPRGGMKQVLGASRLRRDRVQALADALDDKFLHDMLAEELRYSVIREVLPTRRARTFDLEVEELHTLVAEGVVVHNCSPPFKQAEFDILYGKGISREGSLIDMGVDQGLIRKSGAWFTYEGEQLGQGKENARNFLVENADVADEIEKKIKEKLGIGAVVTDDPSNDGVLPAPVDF
# Experiment: Fluorescence Cell-Free Homogeneous Dose Retest to Identify Inhibitors of RecA-Intein Splicing Activity. [Related pubchem assays (depositor defined):AID2097, AID2223, AID489010, AID492950]
# Format: functional
structure (smiles),measurement,value
O=C(NC1=C(NC2CCS(=O)(=O)C2)C(=O)c2ccccc2C1=O)c1ccccc1 (stereo unspecified),EC50,101 nM (active)
